The record followed here is ChEMBL document CHEMBL3351700, “Synthesis, GluN2B affinity and selectivity of benzo[7]annulen-7-amines” (Bioorg Med Chem, 2014).

Experiment [1] addresses Glutamate receptor ionotropic, NMDA 2B (Homo sapiens, UniProt Q05586+Q13224). Briefly: Displacement of [3H]ifenprodil from human GluN2B expressed in mouse L(tk-) cells co-expressing GluN1a after 120 mins by scintillation counting method. In kind it is cell-based.
Experiment [2] has as its target Sigma non-opioid intracellular receptor 1 (Cavia porcellus, UniProt Q60492). The experiment can be described thus: Displacement of [3H](+)-pentazocine from sigma1 receptor in guinea pig brain membranes after 180 mins by scintillation counting method. In kind it is cell membranes, Membrane.
Experiment [3] can be described thus: Displacement of [3H]DTG from sigma2 receptor in rat liver membranes after 180 mins by scintillation counting method. In kind it is cell membranes, Membrane. In general terms: In a radioligand displacement assay an active substance lowers the binding of a labelled ligand.
A further experiment is filed under the species Cavia porcellus. The experiment can be described thus: Displacement of [3H]-(+)-MK-801 from N-methyl D-aspartate receptor phencyclidine binding site in guinea pig brain cortex membranes at 1 uM after 150 mins by scintillation counting method. Format: cell membranes.

Sigma non-opioid intracellular receptor 1, sequence (Q60492 whole entry): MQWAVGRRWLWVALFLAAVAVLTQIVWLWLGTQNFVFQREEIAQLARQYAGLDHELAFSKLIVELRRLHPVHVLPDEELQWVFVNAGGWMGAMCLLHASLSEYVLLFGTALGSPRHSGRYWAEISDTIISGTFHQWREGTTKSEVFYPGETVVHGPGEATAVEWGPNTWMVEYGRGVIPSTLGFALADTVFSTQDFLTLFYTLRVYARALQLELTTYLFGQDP
Glutamate receptor ionotropic, NMDA 2B, sequence (Q13224 whole entry, one chain of several): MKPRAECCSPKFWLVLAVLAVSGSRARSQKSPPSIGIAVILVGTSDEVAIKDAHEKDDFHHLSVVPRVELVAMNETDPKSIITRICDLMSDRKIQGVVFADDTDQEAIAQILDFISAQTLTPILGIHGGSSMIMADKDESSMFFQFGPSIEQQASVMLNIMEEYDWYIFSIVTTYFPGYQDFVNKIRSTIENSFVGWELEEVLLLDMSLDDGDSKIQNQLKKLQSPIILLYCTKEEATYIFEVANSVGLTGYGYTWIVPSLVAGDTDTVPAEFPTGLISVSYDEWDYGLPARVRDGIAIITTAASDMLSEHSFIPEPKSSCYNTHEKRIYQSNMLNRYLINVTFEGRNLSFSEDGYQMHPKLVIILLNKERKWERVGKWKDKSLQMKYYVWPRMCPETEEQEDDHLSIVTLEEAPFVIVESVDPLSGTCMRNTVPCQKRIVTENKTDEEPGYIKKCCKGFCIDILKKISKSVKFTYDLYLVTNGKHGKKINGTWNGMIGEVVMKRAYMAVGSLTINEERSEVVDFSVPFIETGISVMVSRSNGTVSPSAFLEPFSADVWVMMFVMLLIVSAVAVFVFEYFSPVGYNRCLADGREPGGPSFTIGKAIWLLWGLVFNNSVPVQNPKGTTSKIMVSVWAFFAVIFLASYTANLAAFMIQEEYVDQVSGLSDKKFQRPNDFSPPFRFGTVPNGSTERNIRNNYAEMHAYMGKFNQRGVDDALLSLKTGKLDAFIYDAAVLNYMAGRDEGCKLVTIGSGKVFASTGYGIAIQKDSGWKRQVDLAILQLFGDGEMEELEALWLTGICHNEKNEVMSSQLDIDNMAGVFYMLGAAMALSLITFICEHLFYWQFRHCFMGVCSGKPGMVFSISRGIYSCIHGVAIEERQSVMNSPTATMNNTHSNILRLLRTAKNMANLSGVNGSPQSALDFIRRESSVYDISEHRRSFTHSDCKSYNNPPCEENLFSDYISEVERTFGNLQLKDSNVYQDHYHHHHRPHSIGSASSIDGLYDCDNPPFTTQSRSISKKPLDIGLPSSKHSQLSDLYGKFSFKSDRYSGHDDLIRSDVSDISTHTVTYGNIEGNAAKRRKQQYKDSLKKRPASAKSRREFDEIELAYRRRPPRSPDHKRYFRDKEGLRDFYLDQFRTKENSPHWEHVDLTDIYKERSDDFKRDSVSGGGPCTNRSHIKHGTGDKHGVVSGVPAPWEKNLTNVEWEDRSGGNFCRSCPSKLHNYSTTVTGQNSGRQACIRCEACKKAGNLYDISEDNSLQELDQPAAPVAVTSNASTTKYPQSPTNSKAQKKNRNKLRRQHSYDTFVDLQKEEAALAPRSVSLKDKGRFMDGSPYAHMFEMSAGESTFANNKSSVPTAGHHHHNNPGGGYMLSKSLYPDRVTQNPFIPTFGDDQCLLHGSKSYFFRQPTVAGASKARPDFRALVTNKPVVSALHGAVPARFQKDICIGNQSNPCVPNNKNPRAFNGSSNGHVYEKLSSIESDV

For orientation: Ki means a measure of affinity in units of concentration, obtained from inhibition or displacement. A lower Ki goes with a stronger hold on the target. For orientation: inhibition means the relative decrease from the control value, in per cent. Higher therefore signals a strong effect. For `c1ccc(CCCCNC2CCc3ccccc3CC2)cc1`, the values for the inhibitory constant (Ki) in experiment [1], in experiment [2] and in experiment [3] were 0.017 µM, 0.216 µM and 0.055 µM, respectively. For the same compound, the inhibition in the experiment filed under Cavia porcellus was determined as 2%.
Turning to `c1ccc(CNC2CCc3ccccc3CC2)cc1`, the inhibition constant Ki in experiment [1] amounted to 0.057 µM; in experiment [2] it was 0.107 µM; in experiment [3], 0.203 µM. The same compound gave an inhibition in the experiment listed under Cavia porcellus of 16%.
Turning to `COc1ccc2c(c1)CCN(CCCCc1ccccc1)CC2O` (stereo unspecified), the Ki in experiment [3] worked out at 0.554 µM. The inhibition in the experiment filed under Cavia porcellus stood at 22%.
In the case of `c1ccc([C@H]2CC[C@H](NC3CCc4ccccc4CC3)CC2)cc1`, the inhibition constant (Ki) in experiment [1] was found to be 0.0057 µM; in experiment [2], 0.02 µM; in experiment [3] it was 0.014 µM. This compound also had an inhibition in the experiment filed under Cavia porcellus of 30%.
Taken in the same sequence, the figures for `c1ccc(N2CCN(C3CCc4ccccc4CC3)CC2)cc1` were 0.012 µM, 0.182 µM, 0.2 µM and 5%.
Regarding `c1ccc(C2CCN(C3CCc4ccccc4CC3)CC2)cc1`, the values for the Ki in experiment [1], in experiment [2] and in experiment [3] were 0.0069 µM, 0.022 µM and 0.018 µM, respectively. Besides, in the experiment filed under Cavia porcellus, the inhibition stood at 11%.
Taken in the same sequence, the figures for `c1ccc(CCCNC2CCc3ccccc3CC2)cc1` were 0.016 µM, 0.15 µM, 0.027 µM and 0%.
Take `c1ccc(CC2CCN(C3CCc4ccccc4CC3)CC2)cc1`: the Ki in experiment [1] is 0.0029 µM; in experiment [2], 0.0057 µM; in experiment [3], 0.0054 µM. The same compound had an inhibition in the experiment filed under Cavia porcellus of 30%.
For the compound `COc1ccc2c(c1)CCC(NCCCc1ccccc1)CC2` (stereo unspecified), the Ki in experiment [1] came to 0.01 µM; in experiment [2], 0.027 µM; in experiment [3], 0.015 µM. Further, the inhibition in the experiment filed under Cavia porcellus worked out at 0%.
For `COc1ccc2c(c1)CCC(NCCCc1ccccc1)CC2O` (stereo unspecified), the Ki in experiment [1] was 0.016 µM; in experiment [2], 0.132 µM; in experiment [3] it was 0.0092 µM. In the experiment listed under Cavia porcellus, this compound showed an inhibition of 12%.
Taken in the same sequence, the figures for `c1ccc(CCNC2CCc3ccccc3CC2)cc1` were 0.02 µM, 0.022 µM, 0.198 µM and 0%.
Taken in the same sequence, the figures for `c1ccc([C@H]2CC[C@@H](NC3CCc4ccccc4CC3)CC2)cc1` were 0.0023 µM, 0.014 µM, 0.003 µM and 43%.
